{"source": "patent US20230212229A1", "about": "(priority 2021, published 2023)", "key": {"MAVS oligomerization": {"tested_on": "MAVS oligomerization", "format": "cell-based", "conditions": "HEK 293T, Myc-NP transfected; 50 μM or 100 μM NIP-V 1 h before SeV stimulation for 8 h"}, "IFN-β": {"tested_on": "IFN-β", "format": "in vivo, ACE2 transgenic mice", "conditions": "for IFN-β in serum: 0.5 mg NIP-V, individual mice n = 8"}, "SARS-CoV-2 genomic RNA": {"tested_on": "SARS-CoV-2 genomic RNA", "experiment": "qPCR of the load of SARS-CoV-2 genomic RNA in spleen, liver and lung tissues", "format": "in vivo, ACE2 transgenic mice", "conditions": "for SARS-CoV-2 genomic RNA: individual mice n = 8"}, "SARS-CoV-2 S protein": {"tested_on": "SARS-CoV-2 S protein", "format": "in vivo, ACE2 transgenic mice", "conditions": "0.5 mg NIP-V; lungs 24 h after infection; versus PBS+SARS-CoV-2"}, "Ifnb1 mRNA": {"tested_on": "Ifnb1 mRNA", "format": "in vivo, ACE2 transgenic mice", "conditions": "for Ifnb1 mRNA: relative to unstimulated mice, individual mice n = 8"}, "SARS-CoV-2 [1]": {"tested_on": "SARS-CoV-2", "format": "in vivo, ACE2 transgenic mice", "conditions": "for SARS-CoV-2 copies/μL: lung tissue, 0.5 mg NIP-V injected 1 h before intranasal 1×10^5 TCID50, individual mice n = 8"}, "SARS-CoV-2 N protein": {"tested_on": "SARS-CoV-2 N protein", "conditions": "0.5 mg NIP-V; lungs 24 h after infection; versus PBS+SARS-CoV-2"}, "Isg56 mRNA": {"tested_on": "Isg56 mRNA", "format": "in vivo, ACE2 transgenic mice", "conditions": "for Isg56 mRNA: relative to unstimulated mice, individual mice n = 8"}, "SARS-CoV-2 [2]": {"tested_on": "SARS-CoV-2", "format": "in vivo, ACE2 transgenic mice", "conditions": "lungs 24 h after infection"}, "[3]": {"conditions": "NIP-V treatment versus PBS-treated group"}}, "note": "Where “and” joins values, the source holds several entries; their conditions need not be identical. Equal values may be shown once. Read-outs that look alike come from different tables or passages of the source.", "data": [{"sequence": "IHKNLLIVQDKFPPRRRQRRKKRG [NIP-V, interfering peptide targeting amino acids 346 to 357 of the SARS-CoV-2 N protein dimerization domain, fused with HIV-TAT]", "values": [{"measurement": "MAVS oligomerization inhibited by SARS-CoV-2 N protein (SDD-PAGE)", "setting": "MAVS oligomerization", "value": "restore the MAVS oligomerization in a dose-dependent manner"}, {"measurement": "content of IFN-β in serum (in words)", "setting": "IFN-β; NIP-V-treated groups versus PBS-treated groups, 16 h and 24 h", "value": "significantly higher than that in the PBS-treated group"}, {"measurement": "IFN-β in serum", "setting": "IFN-β; 16 h after SARS-CoV-2 infection", "value": "52.44 pg/mL and 46.60 pg/mL and 50.21 pg/mL and 75.33 pg/mL and 37.97 pg/mL and 52.98 pg/mL and 68.93 pg/mL and 48.49 pg/mL"}, {"measurement": "IFN-β in serum", "setting": "IFN-β; 24 h after SARS-CoV-2 infection", "value": "38.29 pg/mL and 38.61 pg/mL and 34.78 pg/mL and 30.95 pg/mL and 44.88 pg/mL and 37.02 pg/mL and 35.42 pg/mL and 45.20 pg/mL"}, {"measurement": "SARS-CoV-2 genomic RNA", "setting": "SARS-CoV-2 genomic RNA; Liver, 16 h", "value": "2.09E+02 Fold and 1.42E+02 Fold and 8.55E+01 Fold and 1.08E+02 Fold and 1.69E+02 Fold and 6.80E+02 Fold and 8.67E+01 Fold and 2.38E+02 Fold"}, {"measurement": "SARS-CoV-2 genomic RNA", "setting": "SARS-CoV-2 genomic RNA; Liver, 24 h", "value": "6.41E+01 Fold and 4.17E+01 Fold and 4.33E+01 Fold and 1.70E+02 Fold and 5.83E+01 Fold and 5.13E+01 Fold and 3.93E+01 Fold and 2.38E+01 Fold"}, {"measurement": "SARS-CoV-2 genomic RNA", "setting": "SARS-CoV-2 genomic RNA; Lung, 16 h", "value": "5.93E+03 Fold and 4.43E+03 Fold and 2.73E+03 Fold and 1.61E+04 Fold and 1.86E+04 Fold and 1.48E+04 Fold and 8.10E+03 Fold and 3.62E+03 Fold"}, {"measurement": "SARS-CoV-2 genomic RNA", "setting": "SARS-CoV-2 genomic RNA; Lung, 24 h", "value": "4.74E+03 Fold and 3.19E+03 Fold and 3.72E+03 Fold and 1.23E+03 Fold and 1.56E+03 Fold and 1.26E+03 Fold and 1.49E+04 Fold and 0.00E+00 Fold"}, {"measurement": "SARS-CoV-2 genomic RNA", "setting": "SARS-CoV-2 genomic RNA; Spleen, 16 h", "value": "1.66E+03 Fold and 1.40E+03 Fold and 1.37E+03 Fold and 4.78E+02 Fold and 1.60E+03 Fold and 8.65E+02 Fold and 1.33E+03 Fold and 1.15E+03 Fold"}, {"measurement": "SARS-CoV-2 genomic RNA", "setting": "SARS-CoV-2 genomic RNA; Spleen, 24 h", "value": "4.18E+02 Fold and 3.11E+02 Fold and 2.38E+02 Fold and 1.85E+02 Fold and 4.43E+02 Fold and 1.35E+02 Fold and 2.56E+02 Fold and 7.20E+02 Fold"}, {"measurement": "proliferation of SARS-CoV-2 in tissues (qPCR, in words)", "setting": "SARS-CoV-2 genomic RNA; spleen, liver and lung, NIP-V treatment versus PBS-treated group", "value": "inhibit the proliferation of SARS-CoV-2"}, {"measurement": "SARS-CoV-2 S protein signal in lung tissue (immunohistochemistry)", "setting": "SARS-CoV-2 S protein", "value": "much lower than that of the PBS+SARS-CoV-2 treated mice"}, {"measurement": "Ifnb1 mRNA", "setting": "Ifnb1 mRNA; Liver, 16 h", "value": "52.55 Fold and 86.45 Fold and 85.91 Fold and 111.15 Fold and 85.02 Fold and 132.00 Fold and 68.88 Fold and 81.36 Fold"}, {"measurement": "Ifnb1 mRNA", "setting": "Ifnb1 mRNA; Liver, 24 h", "value": "22.59 Fold and 79.02 Fold and 29.53 Fold and 33.69 Fold and 42.93 Fold and 49.66 Fold and 31.43 Fold and 45.92 Fold"}, {"measurement": "Ifnb1 mRNA", "setting": "Ifnb1 mRNA; Lung, 16 h", "value": "186.37 Fold and 302.75 Fold and 202.16 Fold and 145.17 Fold and 113.93 Fold and 133.62 Fold and 259.88 Fold and 148.33 Fold"}, {"measurement": "Ifnb1 mRNA", "setting": "Ifnb1 mRNA; Lung, 24 h", "value": "82.49 Fold and 165.42 Fold and 112.99 Fold and 126.62 Fold and 84.22 Fold and 36.61 Fold and 22.54 Fold and 46.19 Fold"}, {"measurement": "expression of Ifnb1 mRNA in spleen, liver and lung tissues (in words)", "setting": "Ifnb1 mRNA; [3]", "value": "increase the expression"}, {"measurement": "Ifnb1 mRNA", "setting": "Ifnb1 mRNA; Spleen, 16 h", "value": "87.27 Fold and 42.74 Fold and 73.72 Fold and 58.30 Fold and 67.91 Fold and 98.19 Fold and 64.75 Fold and 70.43 Fold"}, {"measurement": "Ifnb1 mRNA", "setting": "Ifnb1 mRNA; Spleen, 24 h", "value": "45.66 Fold and 36.50 Fold and 51.66 Fold and 47.70 Fold and 40.76 Fold and 71.38 Fold and 47.81 Fold and 45.86 Fold"}, {"measurement": "SARS-CoV-2 viral load in lung tissue (in words)", "setting": "SARS-CoV-2 [1]; NIP-V-treated groups (2 and 4) versus PBS-treated groups, 16 h and 24 h", "value": "greatly reduced"}, {"measurement": "SARS-CoV-2 copies/μL", "setting": "SARS-CoV-2 [1]; 16 h after infection", "value": "30 copies/μL and 76 copies/μL and 0 copies/μL (3×) and 2484 copies/μL and 131 copies/μL and 726 copies/μL"}, {"measurement": "SARS-CoV-2 copies/μL", "setting": "SARS-CoV-2 [1]; 24 h after infection", "value": "3 copies/μL and 0 copies/μL (7×)"}, {"measurement": "SARS-CoV-2 N protein signal in lung tissue (immunofluorescence)", "setting": "SARS-CoV-2 N protein", "value": "weaker N protein signals can be detected"}, {"measurement": "Isg56 mRNA", "setting": "Isg56 mRNA; Liver, 16 h", "value": "30.49 Fold and 18.13 Fold and 27.16 Fold and 42.29 Fold and 27.58 Fold and 35.86 Fold and 25.80 Fold and 29.09 Fold"}, {"measurement": "Isg56 mRNA", "setting": "Isg56 mRNA; Liver, 24 h", "value": "14.51 Fold and 10.01 Fold and 7.41 Fold and 10.47 Fold and 12.89 Fold and 12.03 Fold and 9.46 Fold and 5.61 Fold"}, {"measurement": "Isg56 mRNA", "setting": "Isg56 mRNA; Lung, 16 h", "value": "92.65 Fold and 109.88 Fold and 67.64 Fold and 46.59 Fold and 99.03 Fold and 85.62 Fold and 91.13 Fold and 26.35 Fold"}, {"measurement": "Isg56 mRNA", "setting": "Isg56 mRNA; Lung, 24 h", "value": "232.32 Fold and 263.20 Fold and 152.15 Fold and 131.60 Fold and 144.01 Fold and 188.71 Fold and 205.07 Fold and 374.81 Fold"}, {"measurement": "expression of Isg56 mRNA in spleen, liver and lung tissues (in words)", "setting": "Isg56 mRNA; [3]", "value": "increase the expression"}, {"measurement": "Isg56 mRNA", "setting": "Isg56 mRNA; Spleen, 16 h", "value": "121.34 Fold and 87.49 Fold and 110.12 Fold and 85.19 Fold and 94.54 Fold and 59.17 Fold and 76.17 Fold and 82.88 Fold"}, {"measurement": "Isg56 mRNA", "setting": "Isg56 mRNA; Spleen, 24 h", "value": "73.25 Fold and 63.36 Fold and 55.41 Fold and 62.68 Fold and 45.16 Fold and 32.90 Fold and 56.97 Fold and 36.50 Fold"}, {"measurement": "lung lesions caused by SARS-CoV-2 infection (HE staining)", "setting": "SARS-CoV-2 [2]; 0.5 mg NIP-V 1 h before infection, versus PBS+SARS-CoV-2", "value": "significantly reduce the lung lesions"}, {"measurement": "thickening of alveolar septa (HE staining)", "setting": "SARS-CoV-2 [2]; 0.5 mg NIP-V", "value": "not significant"}, {"measurement": "occurrence of hemagglutination and inflammatory cell infiltration (HE staining)", "setting": "SARS-CoV-2 [2]; 0.5 mg NIP-V, versus PBS+SARS-CoV-2 group", "value": "significantly lower than that in the PBS+SARS-CoV-2 group"}]}]}
